# Measured values from US9688695B2, “Imidazothiadiazole and imidazopyrazine derivatives as protease activated receptor 4 (PAR4) inhibitors for treating platelet aggregation” (BRISTOL-MYERS SQUIBB COMPANY, priority 2012, dated 2017).
# Key:
# PAR4 [1] = target: T1, PAR4 (Homo sapiens (Human), UniProt Q96RI0); experiment: FLIPR assay in PAR4-expressing HEK293 cells (PAR4 antagonist activity, calcium mobilization); type: cell-based; settings: H-Ala-Phe(4-F)-Pro-Gly-Trp-Leu-Val-Lys-Asn-Gly-NH2-induced calcium mobilization
# Procedure, shortened: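 HEK293 EBNA cells stably expressing human PAR4 (also endogenous PAR1) preincubated 30 min at room temperature with compound in HBSS/10 mM HEPES, 0.67% DMSO final. PAR4 agonist peptide then added and intracellular calcium mobilization monitored by fluorescence.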
# PAR4 [2] = target: T1, PAR4; experiment: Gamma thrombin induced platelet aggregation assay (PRP assay); type: cell-based; settings: human platelet rich plasma, 96-well microplate
# Experimental: Platelet aggregation can be monitored in a 96-well microplate aggregation assay format or using standard platelet aggregometer.
# The platelet rich plasma was isolated by centrifugation at 170 g for 14 minutes.
# The ability of the compounds of the current invention to inhibit platelet aggregation induced by gamma-thrombin was tested in a 96-well microplate aggregation assay format. Briefly, PRP or washed platelet suspension (100 μl) was pre-incubated for 5 minutes at room temperature with varying concentrations of compounds. Aggregation was initiated by ˜10-50 nM gamma thrombin (Haematologic Technologies, Essex Junction, Vt.), which was titrated daily to achieve 80% platelet aggregation. Refludan at 1 U/mL (Berlex, Montville, N.J.) was added to the gamma thrombin sample to prevent PAR1 activation induced by residual alpha-thrombin contamination. The plate was then placed into a 37° C. Molecular Devices (Sunnyvale, Calif.) SPECTRAMAX® Plus Plate Reader. […] The plate also included an untreated control sample which served as ODmax, while buffer containing no platelets was the ODmin. Platelet aggregation was determined by subtracting the ODmax from the ODmin for the 100% aggregation value. In experimental samples, the observed transmission was subtracted from the minimum value and then compared to the 100% aggregation value to determine the percentage aggregation. IC50 values are determined using Excel Fit software.
# T1 sequence (Q96RI0 18-385): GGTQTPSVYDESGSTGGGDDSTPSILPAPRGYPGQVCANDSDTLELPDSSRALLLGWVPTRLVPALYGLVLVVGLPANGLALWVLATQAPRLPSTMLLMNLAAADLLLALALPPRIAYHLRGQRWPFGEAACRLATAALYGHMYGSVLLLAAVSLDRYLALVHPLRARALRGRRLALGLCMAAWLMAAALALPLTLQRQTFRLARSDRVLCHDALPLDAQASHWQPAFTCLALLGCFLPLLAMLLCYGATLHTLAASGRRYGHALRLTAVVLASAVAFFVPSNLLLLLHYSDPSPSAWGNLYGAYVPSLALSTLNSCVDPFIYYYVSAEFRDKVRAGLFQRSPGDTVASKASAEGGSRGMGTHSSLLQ
Structure (SMILES),EC50 (PAR4 [1]),IC50 (PAR4 [2])
"COCCOCc1nc(COc2cc(OC)cc3oc(-c4cn5nc(OC)sc5n4)cc23)cs1 [Example 6, 2-Methoxy-6-(6-methoxy-4-((2-((2-methoxyethoxy)methyl)thiazol-4-yl)methoxy)benzofuran-2-yl)imidazo[2,1-b][1,3,4]thiadiazole]",0.68 nM,2030 nM
COc1cc(OCc2cscn2)c2cc(-c3cn4nc(OC)sc4n3)oc2c1 [Example 34],1.2 nM,2320 nM
COCCN(C)C(=O)c1ccc(-c2nc(COc3cc(OC)cc4oc(-c5cn6nc(OC)sc6n5)cc34)cs2)cc1 [Example 39],0.46 nM,2.1 nM
"CCc1sc(-c2ccc(C(=O)N(C)C)cc2)nc1COc1cc(OC)cc2oc(-c3cn4nc(OC)sc4n3)cc12 [Example 44, 4-(5-Ethyl-4-(((6-methoxy-2-(2-methoxyimidazo[2,1-b][1,3,4]thiadiazol-6-yl)benzofuran-4-yl)oxy)methyl)thiazol-2-yl)-N,N-dimethylbenzamide]",0.9 nM,2 nM
"COc1cc(OCc2nc(-c3ccc(C(=O)N(C)CC#N)cc3)sc2C)c2cc(-c3cn4nc(OC)sc4n3)oc2c1 [Example 48, N-(Cyanomethyl)-4-(4-(((6-methoxy-2-(2-methoxyimidazo[2,1-b][1,3,4]thiadiazol-6-yl)benzofuran-4-yl)oxy)methyl)-5-methylthiazol-2-yl)-N-methylbenzamide]",0.51 nM,1.2 nM
COc1cc(OCc2csc(-c3ccnc(F)c3)n2)c2cc(-c3cn4nc(OC)sc4n3)oc2c1 [Example 67],0.34 nM,2.2 nM
COc1cc(OCc2csc(-c3ccc(F)nc3)n2)c2cc(-c3cn4nc(OC)sc4n3)oc2c1 [Example 73],0.35 nM,1.9 nM
COc1cc(OCc2csc(-c3ccc(C)nc3)n2)c2cc(-c3cn4nc(OC)sc4n3)oc2c1 [Example 74],0.56 nM,0.96 nM
COc1cc(OCc2nc(-c3cccc(CO)c3)sc2C)c2cc(-c3cn4nc(OC)sc4n3)oc2c1 [Example 77],1 nM,1.9 nM
COc1cc(OCc2csc(-c3ccc(Cl)nc3)n2)c2cc(-c3cn4nc(OC)sc4n3)oc2c1 [Example 80],0.74 nM,0.94 nM
"COc1cc(OCc2nc(N)sc2C)c2cc(-c3cn4nc(OC)sc4n3)oc2c1 [Example 87, 4-(((6-Methoxy-2-(2-methoxyimidazo[2,1-b][1,3,4]thiadiazol-6-yl)benzofuran-4-yl)oxy)methyl)-5-methylthiazol-2-amine]",24 nM,> 3000 nM
"COc1cc(OCc2nc(N3CC4CCC(C3)O4)sc2C)c2cc(-c3cn4nc(OC)sc4n3)oc2c1 [Example 93, 3-(4-(((6-Methoxy-2-(2-methoxyimidazo[2,1-b]thiadiazol-6-yl)benzofuran-4-yl)oxy)methyl)-5-methylthiazol-2-yl)-8-oxa-3-azabicyclo-[3.2.1]-octane]",0.45 nM,27 nM
"COc1cc(OCc2csc(N3CCC4(CC3)OCCO4)n2)c2cc(-c3cn4nc(OC)sc4n3)oc2c1 [Example 103, 8-(4-(((6-Methoxy-2-(2-methoxyimidazo[2,1-b][1,3,4]thiadiazol-6-yl)benzofuran-4-yl)oxy)methyl)thiazol-2-yl)-1,4-dioxa-8-azaspiro[4.5]decane]",0.31 nM,24 nM
"COc1cc(OCc2csc(C3(O)CCOCC3)n2)c2cc(-c3cn4nc(OC)sc4n3)oc2c1 [Example 118, 4-(4-(((6-Methoxy-2-(2-methoxyimidazo[2,1-b][1,3,4]thiadiazol-6-yl)benzofuran-4-yl)oxy)methyl)thiazol-2-yl)tetrahydro-2H-pyran-4-ol]",0.33 nM,25 nM
"COc1cc(OCc2csc(C3(O)CC(C)OC(C)C3)n2)c2cc(-c3cn4nc(OC)sc4n3)oc2c1 (centres unmarked) [Example 121, 4-(4-(((6-Methoxy-2-(2-methoxyimidazo[2,1-b][1,3,4]thiadiazol-6-yl)benzofuran-4-yl)oxy)methyl)thiazol-2-yl)-2,6-dimethyltetrahydro-2H-pyran-4-ol]",0.27 nM,27 nM
"COc1cc(OCc2nc(C3(F)CCOCC3)sc2C)c2cc(-c3cn4nc(OC)sc4n3)oc2c1 [Example 125, 6-(4-((2-(4-Fluorotetrahydro-2H-pyran-4-yl)-5-methylthiazol-4-yl)methoxy)-6-methoxybenzofuran-2-yl)-2-methoxyimidazo[2,1-b][1,3,4]-thiadiazole]",–,5.7 nM

Structure (SMILES),EC50 (PAR4 [1]),IC50 (PAR4 [2])
"COc1cc(OCc2csc(C3(O)CCC4(CC3)OCCO4)n2)c2cc(-c3cn4nc(OC)sc4n3)oc2c1 [Example 126, 8-(4-(((6-Methoxy-2-(2-methoxyimidazo[2,1-b][1,3,4]thiadiazol-6-yl)benzofuran-4-yl)oxy)methyl)-thiazol-2-yl)-1,4-dioxaspiro[4.5]decan-8-ol]",0.33 nM,1.9 nM
"COc1cc(OCc2nc(C3(O)CCOCC3)sc2C(F)(F)F)c2cc(-c3cn4nc(OC)sc4n3)oc2c1 [Example 131, 4-(4-(((6-Methoxy-2-(2-methoxyimidazo[2,1-b][1,3,4]thiadiazol-6-yl)benzofuran-4-yl)oxy)methyl)-5-(trifluoromethyl)thiazol-2-yl)tetrahydro-2H-pyran-4-ol]",0.66 nM,> 3000 nM
COc1cc(OCc2csc(C(O)(c3ccccc3)C(F)(F)F)n2)c2cc(-c3cn4nc(OC)sc4n3)oc2c1 (centres unmarked) [Example 137],1.2 nM,23 nM
CCC(F)(c1nc(COc2cc(OC)cc3oc(-c4cn5nc(OC)sc5n4)cc23)cs1)C(F)(F)F (centres unmarked) [Example 139],0.41 nM,26 nM
CCC(F)(CC)c1nc(COc2cc(OC)cc3oc(-c4cn5nc(OC)sc5n4)cc23)cs1 [Example 141],0.47 nM,24 nM
COc1cc(OCc2csc(C(O)(c3ccc(Cl)cc3)C(F)(F)F)n2)c2cc(-c3cn4nc(OC)sc4n3)oc2c1 (centres unmarked) [Example 145],0.45 nM,29 nM
"COc1cc(OCc2csc(C3(O)CCC(C(=O)N4CCCC4)CC3)n2)c2cc(-c3cn4nc(OC)sc4n3)oc2c1 (centres unmarked) [Example 151, (4-Hydroxy-4-(4-(((6-methoxy-2-(2-methoxyimidazo[2,1-b][1,3,4]thiadiazol-6-yl)benzofuran-4-yl)oxy)methyl)thiazol-2-yl)cyclohexyl)(pyrrolidin-1-yl)methanone]",0.84 nM,26 nM
"COc1cc(OCc2csc(C3(O)CCC(C(=O)N(C)CC#N)CC3)n2)c2cc(-c3cn4nc(OC)sc4n3)oc2c1 (centres unmarked) [Example 152, N-(Cyanomethyl)-4-hydroxy-4-(4-(((6-methoxy-2-(2-methoxyimidazo[2,1-b][1,3,4]thiadiazol-6-yl)benzofuran-4-yl)oxy)methyl)thiazol-2-yl)-N-methylcyclohexanecarboxamide]",0.68 nM,28 nM
"COc1cc(OCc2csc(C3(c4ccc(C(=O)N(C)C)cc4)CCOCC3)n2)c2cc(-c3cn4nc(OC)sc4n3)oc2c1 [Example 161, 4-(4-(4-(((6-Methoxy-2-(2-methoxyimidazo[2,1-b][1,3,4]thiadiazol-6-yl)benzofuran-4-yl)oxy)methyl)thiazol-2-yl)tetrahydro-2H-pyran-4-yl)-N,N-dimethylbenzamide]",0.69 nM,27 nM
"COc1cc(OCc2csc(-c3ccccc3)n2)c2cc(-c3cn4nc([C@H](C)F)sc4n3)oc2c1 [Example 192, (S)-2-(1-Fluoroethyl)-6-(6-methoxy-4-((2-phenylthiazol-4-yl)methoxy)benzofuran-2-yl)imidazo[2,1-b][1,3,4]thiadiazole]",1.9 nM,28 nM
"COc1cc(OCc2csc(-c3ccccc3)n2)c2nc(-c3cn4nc(SC)sc4n3)oc2c1 [Example 201, 6-Methoxy-2-(2-(methylthio)imidazo[2,1-b][1,3,4]thiadiazol-6-yl)-4-((2-phenylthiazol-4-yl)methoxy)benzo[d]oxazole]",–,156 nM
"CC(F)(F)c1nn2cc(-c3cc4c(OCc5csc(-c6ccccc6)n5)nccc4o3)nc2s1 [Example 202, 2-(2-(1,1-Difluoroethyl)imidazo[2,1-b][1,3,4]thiadiazol-6-yl)-4-((2-phenylthiazol-4-yl)methoxy)furo[3,2-c]pyridine]",43 nM,> 3000 nM
"COc1cc(OCc2csc(Br)n2)c2cc(-c3cn4nc(C)ccc4n3)oc2c1 [Example 205, 2-Bromo-4-(((6-methoxy-2-(6-methylimidazo[1,2-b]pyridazin-2-yl)benzofuran-4-yl)oxy)methyl)thiazole]",3.5 nM,2380 nM
"COc1cc(OCc2csc(-c3ccc(Cl)cc3)n2)c2cc(-c3cn4nc(C)ccc4n3)oc2c1 [Example 209, 2-(4-Chlorophenyl)-4-(((6-methoxy-2-(6-methylimidazo[1,2-b]pyridazin-2-yl)benzofuran-4-yl)oxy)methyl)thiazole]",1.2 nM,23 nM
COc1cc(OCc2csc(-c3ccc4c(c3)OCO4)n2)c2cc(-c3cn4nc(C)ccc4n3)oc2c1 [Example 219],1 nM,25 nM
COc1cc(OCc2csc(N3CCN(CCO)CC3)n2)c2cc(-c3cn4nc(C)ccc4n3)oc2c1 [Example 243],32 nM,> 3000 nM
